Measured values reported in article PMC12048343, “Discovery of a small molecule secreted clusterin enhancer that improves memory in Alzheimer’s disease mice” (npj Drug Discovery, 2025).

Key:
[1] = system: sCLU in SH-SY5Y cells; experiment: sCLU levels in SH-SY5Y cells; assay type: cell-based, human; details: SH-SY5Y cells (Fig. S9A)
Protocol: Cell culture supernatant (2 μL) was added to a 384-well proxy plate preloaded with AlphaLISA HiBlock buffer (2 µL, 1X, CAT#AL004C, Perkin Elmer). Then an anti-sCLU antibody mixture (2 µL, mAb J84, biotinylated (10 nM, Cat# 3717-6-1000, Mabtech) and mAb CLU aa 22-227 (Cat#AF7084, R&D Systems), Acceptor bead conjugated (50 µg/mL, Cat#6772001, Perkin Elmer)) was added and incubated at room temperature for 1 hour. AlphaScreen Streptavidin Donor beads (2 µL, Cat#6760002S, Perkin Elmer) were added, incubated for an additional 30 min in the dark, and the plate was read in an Envision plate reader.

[2] = system: human iPSC-derived neurons; experiment: Neurite outgrowth assay in iPSC-derived human neurons; assay type: cell-based; details: 48 h
Protocol: The iPSC derived human neurons were provided by the Kornblum lab to be cultured in normal growth conditions (37 °C, 5% CO2) for 2–3 days. Cells were cultured in CELLSTAR uClear 384 well plates, PS, F bottom at seeding density of 5000 cells per well coated overnight with 30 ug/mL poly-D-lysine and 2 ug/mL laminin. Media was replaced every 3 days with Lonza Primary Neuron Basal Medium (PNBM) supplemented with 2 mM L-glutamine, GA-1000, and 2% NSF-1. On day 3, cells were treated with DDL357 in doses ranging from 15,000 nM to 0.76 nM for 48 h. All compounds were diluted in 0.5% DMSO and pinned to 384 well plates with 25 µL of cell media per well with pin size of 250 nL using BioMek FX (Beckman Coulter, CA). After 48 h, media was replaced twice to ensure removal of any remaining compound residues before imaging for neurite outgrowth with Calcein-AM and Hoescht. Imaging was done at UCLA Molecular Screening Shared Resource core facility (MSSR; Robert Damoiseaux, Ph.D., Director) with ImageXPress Confocal (Molecular Devices, CA) using a 10x objective. Total neurite outgrowth was measured via a MetaXpress (Molecular Devices, CA) neurite outgrowth analysis algorithm. […] Mean neurite outgrowth per drug exposure was determined by normalizing to vehicle control (n = 60). […]

[3] = target: hERG potassium channel (Homo sapiens, UniProt Q12809); experiment: hERG potassium channel inhibition assay
hERG potassium channel, sequence (Q12809 whole entry): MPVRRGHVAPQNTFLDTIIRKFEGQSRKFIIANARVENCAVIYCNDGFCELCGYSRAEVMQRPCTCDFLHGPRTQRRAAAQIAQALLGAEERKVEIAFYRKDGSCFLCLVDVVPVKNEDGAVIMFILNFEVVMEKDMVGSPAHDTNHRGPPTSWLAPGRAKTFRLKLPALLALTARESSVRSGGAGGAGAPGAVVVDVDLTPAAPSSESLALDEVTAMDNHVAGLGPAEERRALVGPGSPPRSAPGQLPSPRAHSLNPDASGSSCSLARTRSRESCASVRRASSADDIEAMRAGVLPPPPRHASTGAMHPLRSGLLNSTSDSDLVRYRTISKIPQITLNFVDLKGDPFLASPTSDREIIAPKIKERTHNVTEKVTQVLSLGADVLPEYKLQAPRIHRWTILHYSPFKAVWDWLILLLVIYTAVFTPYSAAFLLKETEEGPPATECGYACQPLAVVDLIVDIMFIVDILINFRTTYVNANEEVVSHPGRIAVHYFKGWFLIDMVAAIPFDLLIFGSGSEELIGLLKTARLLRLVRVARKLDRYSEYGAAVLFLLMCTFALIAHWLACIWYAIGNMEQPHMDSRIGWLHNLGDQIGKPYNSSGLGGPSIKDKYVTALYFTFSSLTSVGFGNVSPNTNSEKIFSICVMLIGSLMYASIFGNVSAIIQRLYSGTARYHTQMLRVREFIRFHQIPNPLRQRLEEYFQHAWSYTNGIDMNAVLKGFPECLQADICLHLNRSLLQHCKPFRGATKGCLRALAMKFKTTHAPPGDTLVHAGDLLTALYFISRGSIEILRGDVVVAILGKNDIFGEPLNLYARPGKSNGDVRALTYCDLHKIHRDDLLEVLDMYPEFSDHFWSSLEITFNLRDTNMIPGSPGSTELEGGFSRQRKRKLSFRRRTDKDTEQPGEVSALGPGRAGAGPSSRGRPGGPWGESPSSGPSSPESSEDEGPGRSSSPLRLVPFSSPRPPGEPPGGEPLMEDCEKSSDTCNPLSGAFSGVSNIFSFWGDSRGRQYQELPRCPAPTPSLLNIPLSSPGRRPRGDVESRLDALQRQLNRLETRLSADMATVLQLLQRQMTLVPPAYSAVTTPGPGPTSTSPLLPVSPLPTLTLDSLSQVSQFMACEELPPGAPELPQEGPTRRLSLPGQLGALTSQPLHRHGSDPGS

## Cc1sc2c(c1C)C(c1ccc(Cl)cc1)=N[C@@H](CC(=O)OC1CC1)c1nnc(C)n1-2 [DDL-357]
[1]
  sCLU levels: increasing sCLU
[2]
  concentrations associated with significantly increased neurite outgrowth: 0.8 to 61.7 nM
[3]
  EC50: > 100 µM
